Values of other authors in publication PMC9689602, “Evaluation of ^68Ga-Radiolabeled Peptides for HER2 PET Imaging” (Diagnostics, 2022).
Like-named read-outs stand apart in the source and are kept apart here.

Assays:
[1] = molecular target: KCCYSL peptide
[2] = system: mice; conditions: up to 1 g/kg intravenous injection
From the text: One drawback for peptides is their susceptibility to degradation from proteases present within organisms. […] Phosphoramidon can be used as an aid to protect peptides from quick degradation when evaluating our peptides in vivo. […] We are using phosphoramidon as a to ...

[3] = molecular target: HER2
Description: Peptide imaging agents allow for quicker injection to imaging times along with a potential decrease in dose to the patient by using a shorter-lived radioisotope. Radiolabeled peptides are currently used in the clinic for the diagnosis of several cancer types. A widely used example is [^68Ga]DOTATATE (NETSPOT®) which was given FDA approval in 2016 and is used for imaging somatostatin receptor type 2 on neuroendocrine cancer with patient imaging 40 to 90 min after intravenous administration. Several HER2-targeting peptides have been reported which could have the potential to be ...

## HER2 (from UniProt P04626)
[1]
  Kd: 30 µM

## CC(C)C[C@H](NP(=O)(O)O[C@@H]1O[C@@H](C)[C@H](O)[C@@H](O)[C@H]1O)C(=O)N[C@@H](Cc1c[nH]c2ccccc12)C(=O)O [phosphoramidon, Phosphoramidon]
[2]
  toxicity in mice: low toxicity and no death

## KCCYSL
[3]; binding to HER2, read-out: equilibrium dissociation constant
  Kd: 30 µM

## DTFPYLGWWNPNEYRY
[3]; highest affinity in OBOC library, read-out: affinity (Kd)
  Kd: 0.0186 µM
